Publication PMC10482691, “LTP induction by structural rather than enzymatic functions of CaMKII” (Nature, 2023)
Where “and” joins values, the source holds several entries; their conditions need not be identical. Equal values may be shown once.

Tests used:
Arg(h) = Arg(h) (Homo sapiens, UniProt P42684); assay: Kinase selectivity panel (residual activity at 1 μM); assay type: biochemical; conditions: inhibitor at 1 μM; read-out: residual kinase activity in % of maximal activity
AMPKα1(h) = AMPKα1(h) (Homo sapiens, UniProt Q13131); assay: as above; assay type: biochemical; conditions: inhibitor at 1 μM; read-out: residual kinase activity in % of maximal activity
Aurora-C(h) = Aurora-C(h) (Homo sapiens, UniProt Q9UQB9); assay: as above; assay type: biochemical; conditions: inhibitor at 1 μM; read-out: residual kinase activity in % of maximal activity
CaMKI(h) = CaMKI(h) (Homo sapiens, UniProt Q14012); assay: as above; assay type: biochemical; conditions: inhibitor at 1 μM; read-out: residual kinase activity in % of maximal activity
Chain of CaMKI(h) (Q14012 whole entry): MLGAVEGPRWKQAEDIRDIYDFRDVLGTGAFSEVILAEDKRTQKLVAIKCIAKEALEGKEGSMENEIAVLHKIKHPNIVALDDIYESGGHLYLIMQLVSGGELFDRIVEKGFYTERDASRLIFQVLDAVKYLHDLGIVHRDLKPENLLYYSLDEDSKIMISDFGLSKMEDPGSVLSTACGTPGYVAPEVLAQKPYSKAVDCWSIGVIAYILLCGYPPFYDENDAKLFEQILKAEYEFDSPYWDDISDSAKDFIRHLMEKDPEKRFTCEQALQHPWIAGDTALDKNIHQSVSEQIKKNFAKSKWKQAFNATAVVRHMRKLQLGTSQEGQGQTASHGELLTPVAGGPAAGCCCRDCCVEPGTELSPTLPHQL

CaMKIIγ(h) = CaMKIIγ(h) (Homo sapiens, UniProt Q13555); assay: as above; assay type: biochemical; conditions: inhibitor at 1 μM; read-out: residual kinase activity in % of maximal activity
CaMKIV(h) = CaMKIV(h) (Homo sapiens, UniProt Q16566); assay: as above; assay type: biochemical; conditions: inhibitor at 1 μM; read-out: residual kinase activity in % of maximal activity
CDK2/cyclinE(h) = CDK2/cyclinE(h) (Homo sapiens, UniProt P24941); assay: as above; assay type: biochemical; conditions: inhibitor at 1 μM
CDK5/p35(h) = CDK5/p35(h) (Homo sapiens, UniProt Q00535); assay: as above; assay type: biochemical; conditions: inhibitor at 1 μM; read-out: residual kinase activity in % of maximal activity
Chain of CDK5/p35(h) (Q00535 whole entry): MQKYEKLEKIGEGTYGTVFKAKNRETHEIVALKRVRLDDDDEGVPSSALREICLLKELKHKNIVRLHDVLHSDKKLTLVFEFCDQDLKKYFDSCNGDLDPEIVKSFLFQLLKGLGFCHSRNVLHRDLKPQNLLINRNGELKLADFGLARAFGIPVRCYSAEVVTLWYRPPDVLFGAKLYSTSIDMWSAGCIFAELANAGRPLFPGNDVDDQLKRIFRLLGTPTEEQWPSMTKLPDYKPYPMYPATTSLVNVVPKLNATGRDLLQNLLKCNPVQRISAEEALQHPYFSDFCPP
Chain of CDK5/p35(h) (Q15078 whole entry partner): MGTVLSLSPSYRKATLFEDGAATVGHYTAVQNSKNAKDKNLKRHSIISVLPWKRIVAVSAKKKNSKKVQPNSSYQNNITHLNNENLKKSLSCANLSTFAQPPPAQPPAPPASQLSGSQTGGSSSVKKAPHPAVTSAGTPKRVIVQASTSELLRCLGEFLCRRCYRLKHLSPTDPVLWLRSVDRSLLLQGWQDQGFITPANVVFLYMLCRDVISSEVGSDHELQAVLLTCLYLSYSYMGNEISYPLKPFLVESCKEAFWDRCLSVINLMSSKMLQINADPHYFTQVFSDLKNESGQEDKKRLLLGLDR

FAK(h) = FAK(h) (Homo sapiens, UniProt Q05397); assay: as above; assay type: biochemical; conditions: inhibitor at 1 μM; read-out: residual kinase activity in % of maximal activity
GSK3β(h) = GSK3β(h) (Homo sapiens, UniProt P49841); assay: as above; assay type: biochemical; conditions: inhibitor at 1 μM; read-out: residual kinase activity in % of maximal activity
IGF-1R(h) = IGF-1R(h) (Homo sapiens, UniProt P08069); assay: as above; assay type: biochemical; conditions: inhibitor at 1 μM; read-out: residual kinase activity in % of maximal activity
PDGFRβ(h) = PDGFRβ(h) (Homo sapiens, UniProt P09619); assay: as above; assay type: biochemical; conditions: inhibitor at 1 μM; read-out: residual kinase activity in % of maximal activity
Chain of PDGFRβ(h) (P09619 33-1106): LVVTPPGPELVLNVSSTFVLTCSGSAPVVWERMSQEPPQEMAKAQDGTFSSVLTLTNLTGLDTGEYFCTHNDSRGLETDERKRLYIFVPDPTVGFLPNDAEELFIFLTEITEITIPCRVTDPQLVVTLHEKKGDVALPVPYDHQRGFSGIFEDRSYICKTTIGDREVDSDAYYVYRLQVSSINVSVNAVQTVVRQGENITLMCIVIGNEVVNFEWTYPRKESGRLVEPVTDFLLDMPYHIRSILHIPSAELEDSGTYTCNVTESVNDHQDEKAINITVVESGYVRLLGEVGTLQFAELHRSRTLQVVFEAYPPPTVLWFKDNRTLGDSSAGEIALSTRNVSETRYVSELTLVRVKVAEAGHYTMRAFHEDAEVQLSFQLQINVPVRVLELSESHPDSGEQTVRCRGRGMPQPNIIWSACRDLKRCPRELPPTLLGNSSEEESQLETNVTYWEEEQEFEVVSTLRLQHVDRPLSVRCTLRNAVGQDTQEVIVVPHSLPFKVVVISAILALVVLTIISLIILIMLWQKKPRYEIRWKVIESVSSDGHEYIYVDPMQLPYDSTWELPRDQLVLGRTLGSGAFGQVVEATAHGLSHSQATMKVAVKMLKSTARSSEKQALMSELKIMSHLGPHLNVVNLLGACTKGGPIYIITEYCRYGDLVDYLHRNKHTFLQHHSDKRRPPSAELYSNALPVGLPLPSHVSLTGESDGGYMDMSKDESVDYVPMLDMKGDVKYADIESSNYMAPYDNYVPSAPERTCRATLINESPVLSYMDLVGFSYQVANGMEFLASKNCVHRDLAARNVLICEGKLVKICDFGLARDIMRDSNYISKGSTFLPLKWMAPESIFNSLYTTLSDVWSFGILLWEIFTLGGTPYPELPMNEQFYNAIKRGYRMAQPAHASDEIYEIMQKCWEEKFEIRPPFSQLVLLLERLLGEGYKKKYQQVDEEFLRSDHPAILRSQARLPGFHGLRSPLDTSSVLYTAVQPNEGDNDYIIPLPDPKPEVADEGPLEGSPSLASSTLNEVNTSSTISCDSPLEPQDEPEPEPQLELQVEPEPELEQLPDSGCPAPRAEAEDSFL

Pim-3(h) = Pim-3(h) (Homo sapiens, UniProt Q86V86); assay: as above; assay type: biochemical; conditions: inhibitor at 1 μM; read-out: residual kinase activity in % of maximal activity
PKG1β(h) = PKG1β(h) (Homo sapiens, UniProt Q13976); assay: as above; assay type: biochemical; conditions: inhibitor at 1 μM; read-out: residual kinase activity in % of maximal activity
Chain of PKG1β(h) (Q13976 1-686 isoform Q13976-2): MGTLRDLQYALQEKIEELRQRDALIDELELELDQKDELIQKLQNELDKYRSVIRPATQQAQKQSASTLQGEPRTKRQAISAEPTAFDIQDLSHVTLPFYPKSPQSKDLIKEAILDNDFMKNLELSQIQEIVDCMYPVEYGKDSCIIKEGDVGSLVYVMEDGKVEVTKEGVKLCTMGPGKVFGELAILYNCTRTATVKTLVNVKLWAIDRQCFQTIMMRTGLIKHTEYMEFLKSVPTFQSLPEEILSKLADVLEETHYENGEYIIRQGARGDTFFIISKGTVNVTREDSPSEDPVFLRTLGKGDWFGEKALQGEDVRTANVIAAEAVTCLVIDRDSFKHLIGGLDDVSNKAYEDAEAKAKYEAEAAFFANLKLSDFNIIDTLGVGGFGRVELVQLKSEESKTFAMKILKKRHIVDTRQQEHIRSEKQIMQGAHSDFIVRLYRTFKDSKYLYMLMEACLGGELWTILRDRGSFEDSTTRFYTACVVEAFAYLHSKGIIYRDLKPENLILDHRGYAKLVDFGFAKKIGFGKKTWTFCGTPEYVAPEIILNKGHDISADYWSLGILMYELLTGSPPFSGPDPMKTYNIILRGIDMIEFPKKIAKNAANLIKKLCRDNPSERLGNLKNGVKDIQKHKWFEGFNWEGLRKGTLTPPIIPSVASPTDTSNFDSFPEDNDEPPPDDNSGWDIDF

[1] = molecular target: T1, CaMKII-F89G binding to GST-GluN2B-c (Homo sapiens, UniProt Q9UQM7, F89G); assay: CaMKII-F89G binding to immobilized GST-GluN2B-c in vitro
T1 construct: made in house; host or cells: HEK293 overexpression (CaMKII mutant); BL21 bacteria (CaM, GST-GluN2Bc)
T1 sequence (Q9UQM7 whole entry F89G): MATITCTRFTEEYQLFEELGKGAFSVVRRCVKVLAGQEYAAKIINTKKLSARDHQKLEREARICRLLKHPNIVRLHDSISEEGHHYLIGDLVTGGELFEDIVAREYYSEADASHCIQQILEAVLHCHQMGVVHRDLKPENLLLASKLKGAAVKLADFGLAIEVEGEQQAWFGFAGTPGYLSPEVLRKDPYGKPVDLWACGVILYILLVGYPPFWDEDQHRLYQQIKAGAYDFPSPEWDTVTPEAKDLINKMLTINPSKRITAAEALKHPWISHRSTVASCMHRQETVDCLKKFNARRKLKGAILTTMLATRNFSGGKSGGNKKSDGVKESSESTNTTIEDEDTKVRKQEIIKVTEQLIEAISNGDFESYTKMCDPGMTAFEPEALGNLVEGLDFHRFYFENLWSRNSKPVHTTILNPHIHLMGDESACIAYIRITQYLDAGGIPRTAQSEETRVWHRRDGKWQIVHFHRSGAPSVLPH
T1 sequence (Q13224 836-1484, further chain): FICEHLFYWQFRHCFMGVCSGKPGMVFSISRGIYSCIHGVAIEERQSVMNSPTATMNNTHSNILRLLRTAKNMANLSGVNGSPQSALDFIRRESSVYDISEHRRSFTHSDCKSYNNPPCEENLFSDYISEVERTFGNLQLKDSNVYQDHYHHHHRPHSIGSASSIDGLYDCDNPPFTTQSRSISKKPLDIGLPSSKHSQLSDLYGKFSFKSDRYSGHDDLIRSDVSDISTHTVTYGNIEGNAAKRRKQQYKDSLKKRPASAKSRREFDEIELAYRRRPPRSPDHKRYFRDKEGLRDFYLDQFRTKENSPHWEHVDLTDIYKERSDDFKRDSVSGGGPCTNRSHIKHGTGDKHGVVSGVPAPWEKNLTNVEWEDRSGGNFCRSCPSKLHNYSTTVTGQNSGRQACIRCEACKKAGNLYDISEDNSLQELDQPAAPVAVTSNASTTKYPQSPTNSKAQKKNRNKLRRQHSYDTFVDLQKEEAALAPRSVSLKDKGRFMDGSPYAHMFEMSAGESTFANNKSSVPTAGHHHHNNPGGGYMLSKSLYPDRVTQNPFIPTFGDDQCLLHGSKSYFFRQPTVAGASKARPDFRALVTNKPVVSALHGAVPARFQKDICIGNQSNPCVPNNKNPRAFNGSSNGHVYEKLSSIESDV
Experimental: CaMKII–GluN2B binding assays were done as described[9],[13],[25]. Briefly, GST–GluN2B-c tail (GST–2BC) was immobilized on anti-GST antibody-coated microtiter plates (Thermo Scientific), blocked for 30 min with 5% BSA and then overlaid with […] CaMKII (subunit concentration) in PIPES-buffered saline (pH 7.2) containing 2 mM Ca^2+, 1 μM CaM, 1 mM Mg^2+, 0.1% BSA and 0.1% Tween-20 for 20 min at room temperature. The addition of 1 mM ADP, 1 mM ATP, 10 μM AS283 (or AS105) or 10 μM NM-PP1 was added accordingly (Figs. 1–6). After extensive washes in buffer containing 1 mM EGTA, GST–2BC and bound CaMKII were eluted for 10 min in SDS loading buffer at 95 °C. Bound CaMKII was measured via immunoblot.
Extended Data Fig. 4 CaMKII WT and K42M are unaffected by NM-PP1 in HEK cells. Data are presented as mean values +/− SEM. a, Representative immunoblot and quantification of in vitro kinase reactions at 30 °C in 1 mM ATP measuring CaMKIIα WT and F89G phosphorylation of T286 (n = 4 independent samples, **p < 0.01, ***p < 0.001; two-way ANOVA with Šídák’s multiple comparisons test). WT) –:ATP p = 0.0012; –:ATP+NM-PP1 p = 0.0002; ATP:ATP+NM-PP1 p = 0.7989. […] Scale bar indicates 10 μm. n = 22, 17 cells; see Fig. 4c for quantification. c, Binding of CaMKII-F89G to immobilized GST-GluN2B-c was induced by Ca^2+/CaM in the presence of either 1 mM ADP or 10 μM NM-PP1. […]

[2] = tested on: GFP–CaMKII K42M in rat hippocampal neurons; assay: cLTP-induced CaMKII synaptic enrichment in dissociated hippocampal cultures (GFP–CaMKII K42M); assay type: cell-based; conditions: sheet 4e

Chain of Arg(h) (P42684 whole entry): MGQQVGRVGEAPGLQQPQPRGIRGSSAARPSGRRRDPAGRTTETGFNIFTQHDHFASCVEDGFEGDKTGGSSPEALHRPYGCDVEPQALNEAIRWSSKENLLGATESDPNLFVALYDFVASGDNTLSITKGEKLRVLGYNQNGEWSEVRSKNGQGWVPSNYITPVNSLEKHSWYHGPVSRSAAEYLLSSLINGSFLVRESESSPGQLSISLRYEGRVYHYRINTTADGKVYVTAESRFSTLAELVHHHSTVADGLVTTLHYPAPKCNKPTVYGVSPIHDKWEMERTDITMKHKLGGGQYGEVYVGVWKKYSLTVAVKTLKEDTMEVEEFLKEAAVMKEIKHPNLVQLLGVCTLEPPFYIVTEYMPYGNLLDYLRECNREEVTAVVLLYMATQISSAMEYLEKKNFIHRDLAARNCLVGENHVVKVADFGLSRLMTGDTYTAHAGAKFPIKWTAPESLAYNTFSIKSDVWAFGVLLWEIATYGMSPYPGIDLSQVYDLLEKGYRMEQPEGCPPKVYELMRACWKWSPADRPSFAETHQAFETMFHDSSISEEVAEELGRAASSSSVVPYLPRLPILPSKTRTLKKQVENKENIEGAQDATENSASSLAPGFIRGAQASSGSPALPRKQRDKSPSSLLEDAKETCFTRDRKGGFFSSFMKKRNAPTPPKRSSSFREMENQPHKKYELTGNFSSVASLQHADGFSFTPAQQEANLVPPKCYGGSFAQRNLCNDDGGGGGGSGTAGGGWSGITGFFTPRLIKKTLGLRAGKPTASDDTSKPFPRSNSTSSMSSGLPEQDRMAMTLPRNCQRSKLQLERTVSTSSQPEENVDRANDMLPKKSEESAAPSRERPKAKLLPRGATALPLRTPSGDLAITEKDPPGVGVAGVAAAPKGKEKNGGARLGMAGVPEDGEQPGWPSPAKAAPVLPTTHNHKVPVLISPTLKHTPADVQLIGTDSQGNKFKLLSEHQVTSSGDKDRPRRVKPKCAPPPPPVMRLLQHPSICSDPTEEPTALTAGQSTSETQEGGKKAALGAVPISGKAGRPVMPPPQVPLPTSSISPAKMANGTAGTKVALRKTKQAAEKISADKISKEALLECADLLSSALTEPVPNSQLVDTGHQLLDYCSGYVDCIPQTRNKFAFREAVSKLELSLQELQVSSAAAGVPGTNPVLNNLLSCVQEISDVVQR

| SMILES | remaining activity at 1 µM (Arg(h)) [%] | remaining activity at 1 µM (AMPKα1(h)) [%] | remaining activity at 1 µM (Aurora-C(h)) [%] | remaining activity at 1 µM (CaMKI(h)) [%] | remaining activity at 1 µM (CaMKIIγ(h)) [%] | remaining activity at 1 µM (CaMKIV(h)) [%] | residual kinase activity in % of maximal activity (CDK2/cyclinE(h)) [%] | remaining activity at 1 µM (CDK5/p35(h)) [%] | remaining activity at 1 µM (FAK(h)) [%] | remaining activity at 1 µM (GSK3β(h)) [%] | remaining activity at 1 µM (IGF-1R(h)) [%] | remaining activity at 1 µM (PDGFRβ(h)) [%] | remaining activity at 1 µM (Pim-3(h)) [%] | remaining activity at 1 µM (PKG1β(h)) [%] | bound CaMKII-F89G (immunoblot, relative) ([1]; Ca2+/CaM, 10 μM NM-PP1) | effect on binding of CaMKII F89G to GluN2B in vitro ([1]; NM-PP1) | CaMKII synaptic enrichment ([2]; NMPP1, before cLTP, individual neurons) | CaMKII synaptic enrichment ([2]; after cLTP in NMPP1, individual neurons) |
| --- | --- | --- | --- | --- | --- | --- | --- | --- | --- | --- | --- | --- | --- | --- | --- | --- | --- | --- |
| NCCNc1cccc(-c2ccnc3[nH]c4ccccc4c23)c1 [AS283] | 96 | 70 | 63 | 107 | 2 | 90 | 41 | 33 | 68 | 87 | 110 | 111 | 97 | 38 | – | – | – | – |
| CC(C)(C)n1nc(Cc2cccc3ccccc23)c2c(N)ncnc21 [NM-PP1] | – | – | – | – | – | – | – | – | – | – | – | – | – | – | 3.501 and 3.151 and 3.552 and 3.537 | enabled binding | 1.065 and 0.7915 and 0.7418 and 0.4255 and 0.8744 and 0.8871 | 1.554 and 1.155 and 0.8796 and 0.5587 and 1.358 and 1.0618 |
